Experimental data reported in article PMC11968843, “Sulphostin-inspired N-phosphonopiperidones as selective covalent DPP8 and DPP9 inhibitors” (Nature Communications, 2025).
Where “and” joins values, the source holds several entries; their conditions need not be identical. Identical values can stand only once. Entries after “also recorded” stand apart in the source; their conditions may differ.

Columns and labels:
DPP9 = DPP9 (Homo sapiens, UniProt Q86TI2); experiment: biochemical; type: biochemical; design: purchased Proteros Biostructures GmbH, Germany; conditions: for IC50: GP-AMC 250 µM, 10 nM enzyme, 45 min pre-incubation at 30 °C, read-out: IC50 DPP9
Method: (§1) Enzyme activity of DPP4, DPP8, DPP9 (Proteros Biostructures GmbH, Germany) and PREP (Sigma Aldrich, USA) was determined by measuring the initial velocity of AMC release from the fluorogenic substrate GP-AMC (Sigma Aldrich, USA) using a Tecan Spark® 10 M multimode microplate reader (Tecan Group Ltd., Switzerland) in activity buffer (20 mM HEPES/KOH pH 7.3, 110 mM potassium acetate, 2 mM Mg acetate, 0.5 mM EGTA, 0.02% Tween 20, supplemented with 1 mM DTT) and a final volume of 20 μL for maximal 60 min at 30 °C. Prior to activity measurement, 10 nM enzyme was incubated for 45 min at 30 °C and gentle shaking with the inhibitor compounds in concentrations ranging from 0 to 100 μM. The compounds were dissolved in DMSO and diluted in activity buffer (final DMSO concentration: 1%). […] IC50 values were calculated using Graph-Pad Prism v10.2.3 using the equation: [Inhibitor] vs. response—Variable slope (four parameters). All measurements were performed in triplicates and error bars represent standard errors of the fit.

[1] = molecular target: T1, DPP9-BRCA2 interaction in HeLa wild-type cells (Homo sapiens, UniProt Q86TI2); experiment: Proximity ligation assay (PLA) of MMC-induced DPP9-BRCA2 interaction; type: cell-based; conditions: for 95% confidence interval of difference: compound vs. +Ctrl., Unpaired two-sided t-test
T1 construct: endogenous in cells; host or cells: HeLa wild-type (HeLa Flp-In T-REx WT)
Method: HeLa wild-type cells were cultured as described above. Cells were seeded on coverslips in 24‐well plates (Greiner, Germany) at a concentration of 2 × 10^4 cells per well (37 °C and 5% CO2). To induce a DPP9-BRCA2 interaction, 300 nM MMC was added to the cells 8 h after seeding and for a total incubation time of 24 h. Indicated Inhibitors (10 µM) were added 1 h prior to cell fixation. Cells were fixed with 4% formaldehyde in PBS for 10 min and permeabilized with 0.2% Triton‐X‐100 in PBS for 5 min. The proximity ligation assay (PLA) was performed using the Duolink in situ PLA Kit (Sigma Aldrich, USA). Briefly, cells were washed with PBS and blocked with Duolink Blocking solution for 60 min at 37 °C. […] Antibody control coverslips were treated with only one primary antibody to estimate background staining in each experiment. Coverslips were washed and treated with PLA reagents according to the manufacturers protocol. Cells were mounted in DAKO with DAPI fluorescent mounting medium and analyzed using an LSM 710 confocal microscope, 63x NA 1.4 oil immersion objective (Zeiss, Germany). Images were processed using Zen black v2.3 (Zeiss, Germany) and subsequently analyzed using the Duolink ImageTool Setup 1.0.1.2 (Sigma Aldrich, USA).

HeLa wild-type cells [2] = experiment: Cell viability assay (MTT), co-treatment with Mitomycin C; type: cell-based; conditions: for cell viability normalized for each condition seperately to corresponsing [-MMC +inhibitor] control: +MMC co-treatment, individual replicate values (Supplementary Figure 11b); for effect on cell viability / sensitivity to MMC: HeLa wild-type, 1 µM MMC + 10 µM inhibitor, 72 h
Method: (§2) HeLa wild-type (HeLa Flp-In T-REx WT, kind gift from Prof. Matthias Hentze) and HeLa DPP9^KO cells (prepared in-house) were cultured in DMEM (ThermoFisher, USA) supplemented with 10% FBS (PAN Biotech, Germany), 2 mM L-Glutamin (ThermoFisher, USA) and 1% Penicillin/Streptomycin (100 U mL^−1 Penicillin and 100 µg mL^−1 Streptomycin, ThermoFisher, USA). Cells were seeded in 96-well flat-bottom cell culture plates (Greiner, Germany) at a concentration of 5 × 10^3 cells per well (37 °C and 5% CO2). The indicated concentration of Mitomycin C (MMC, Merck) was added to the cells 24 h after seeding, together with 10 µM of the indicated inhibitor. The inhibitors were refreshed every 24 h. Control cells were treated with DMSO.
(§3) Cell viability was measured 72 hours after the MMC treatment. For this, the medium was removed and replaced with phenol-red free DMEM (ThermoFisher, USA) containing 0.5 mg mL^−1 MTT (Sigma Aldrich, USA). Cells were incubated for 30 min at 37 °C, 5% CO2. Subsequently, the medium was removed and replaced by DMSO. The plates were shaken on an orbital shaker for 20 min before measuring the MTT signal on a CARIOstar Plus microplate reader (BMT labtech, Germany). Each experiment was performed three times, each in triplicates.

HeLa wild-type cells [3] = experiment: Cell viability assay (MTT), inhibitor alone; type: cell-based; conditions: for Cell viability normalized to mock treated cells + 0 µM MMC: individual replicate values (Supplementary Figure 11a); for 95% confidence interval of difference: Figure 5d S11a, Ctrl. [-MMC] vs. compound [-MMC], Tukey's multiple comparisons test
Method: as §2, §3

DPP8 = molecular target: T2, DPP8 (Homo sapiens, UniProt Q6V1X1); experiment: biochemical; type: biochemical; conditions: for IC50: GP-AMC 250 µM, 10 nM enzyme, 45 min pre-incubation at 30 °C, read-out: IC50 DPP8
T2 construct: purchased Proteros Biostructures GmbH, Germany
Method: as §1

DPP4 = molecular target: T3, DPP4 (Homo sapiens, UniProt P27487); experiment: biochemical; type: biochemical
T3 construct: purchased Proteros Biostructures GmbH, Germany
Method: as §1

[4] = Figure 5d S11a, + Ctrl. [+MMC] vs. compound [+MMC], Tukey's multiple comparisons test
[5] = Figure S11b, Ctrl. vs. compound, Uncorrected Fisher's LSD

DPP9, sequence (Q86TI2 whole entry): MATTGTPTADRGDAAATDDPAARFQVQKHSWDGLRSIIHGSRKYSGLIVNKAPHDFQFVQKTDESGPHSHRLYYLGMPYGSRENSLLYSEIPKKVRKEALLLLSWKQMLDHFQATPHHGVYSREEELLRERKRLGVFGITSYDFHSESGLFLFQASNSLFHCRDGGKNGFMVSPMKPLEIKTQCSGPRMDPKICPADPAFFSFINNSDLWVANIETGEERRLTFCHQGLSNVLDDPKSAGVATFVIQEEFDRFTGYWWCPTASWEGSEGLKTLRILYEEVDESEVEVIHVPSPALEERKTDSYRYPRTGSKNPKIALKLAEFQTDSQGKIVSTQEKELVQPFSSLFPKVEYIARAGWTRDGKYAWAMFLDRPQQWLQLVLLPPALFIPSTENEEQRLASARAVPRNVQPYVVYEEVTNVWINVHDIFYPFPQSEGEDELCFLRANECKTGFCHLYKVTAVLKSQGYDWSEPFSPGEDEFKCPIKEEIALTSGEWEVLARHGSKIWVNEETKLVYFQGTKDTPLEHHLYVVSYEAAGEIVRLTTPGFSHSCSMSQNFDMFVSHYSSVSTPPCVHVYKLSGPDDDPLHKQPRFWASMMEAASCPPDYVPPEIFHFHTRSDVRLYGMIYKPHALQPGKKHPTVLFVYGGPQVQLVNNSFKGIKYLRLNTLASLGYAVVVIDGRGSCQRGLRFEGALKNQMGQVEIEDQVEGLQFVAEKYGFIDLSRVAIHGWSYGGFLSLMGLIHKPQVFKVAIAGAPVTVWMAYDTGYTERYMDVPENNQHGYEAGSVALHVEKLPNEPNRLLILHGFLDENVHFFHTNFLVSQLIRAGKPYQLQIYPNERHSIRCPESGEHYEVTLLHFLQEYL
T1 sequence (Q86TI2 whole entry): as above
T2 sequence (Q6V1X1 whole entry): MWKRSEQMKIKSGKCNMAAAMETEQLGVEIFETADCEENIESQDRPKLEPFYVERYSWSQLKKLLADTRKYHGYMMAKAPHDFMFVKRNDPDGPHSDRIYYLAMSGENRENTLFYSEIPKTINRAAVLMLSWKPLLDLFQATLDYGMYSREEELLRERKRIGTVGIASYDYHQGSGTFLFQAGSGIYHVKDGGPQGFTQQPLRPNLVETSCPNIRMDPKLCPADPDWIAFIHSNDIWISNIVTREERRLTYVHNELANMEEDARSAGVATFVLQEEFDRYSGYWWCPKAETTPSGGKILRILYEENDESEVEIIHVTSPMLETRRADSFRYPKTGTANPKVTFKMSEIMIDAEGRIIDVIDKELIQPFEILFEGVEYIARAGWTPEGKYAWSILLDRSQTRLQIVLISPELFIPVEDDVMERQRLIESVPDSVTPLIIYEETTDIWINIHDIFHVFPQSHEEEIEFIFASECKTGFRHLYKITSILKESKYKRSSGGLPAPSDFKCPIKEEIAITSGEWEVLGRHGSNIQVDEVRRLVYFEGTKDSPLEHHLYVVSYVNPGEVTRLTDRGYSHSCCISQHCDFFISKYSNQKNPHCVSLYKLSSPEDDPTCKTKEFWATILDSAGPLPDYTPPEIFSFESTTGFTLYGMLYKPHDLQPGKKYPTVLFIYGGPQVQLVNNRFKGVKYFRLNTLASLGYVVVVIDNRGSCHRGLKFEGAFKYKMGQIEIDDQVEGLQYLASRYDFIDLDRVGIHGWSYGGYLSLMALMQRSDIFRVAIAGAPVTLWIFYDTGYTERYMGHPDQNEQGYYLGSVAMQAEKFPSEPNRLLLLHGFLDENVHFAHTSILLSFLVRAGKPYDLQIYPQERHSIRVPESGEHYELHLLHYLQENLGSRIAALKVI
T3 sequence (P27487 whole entry): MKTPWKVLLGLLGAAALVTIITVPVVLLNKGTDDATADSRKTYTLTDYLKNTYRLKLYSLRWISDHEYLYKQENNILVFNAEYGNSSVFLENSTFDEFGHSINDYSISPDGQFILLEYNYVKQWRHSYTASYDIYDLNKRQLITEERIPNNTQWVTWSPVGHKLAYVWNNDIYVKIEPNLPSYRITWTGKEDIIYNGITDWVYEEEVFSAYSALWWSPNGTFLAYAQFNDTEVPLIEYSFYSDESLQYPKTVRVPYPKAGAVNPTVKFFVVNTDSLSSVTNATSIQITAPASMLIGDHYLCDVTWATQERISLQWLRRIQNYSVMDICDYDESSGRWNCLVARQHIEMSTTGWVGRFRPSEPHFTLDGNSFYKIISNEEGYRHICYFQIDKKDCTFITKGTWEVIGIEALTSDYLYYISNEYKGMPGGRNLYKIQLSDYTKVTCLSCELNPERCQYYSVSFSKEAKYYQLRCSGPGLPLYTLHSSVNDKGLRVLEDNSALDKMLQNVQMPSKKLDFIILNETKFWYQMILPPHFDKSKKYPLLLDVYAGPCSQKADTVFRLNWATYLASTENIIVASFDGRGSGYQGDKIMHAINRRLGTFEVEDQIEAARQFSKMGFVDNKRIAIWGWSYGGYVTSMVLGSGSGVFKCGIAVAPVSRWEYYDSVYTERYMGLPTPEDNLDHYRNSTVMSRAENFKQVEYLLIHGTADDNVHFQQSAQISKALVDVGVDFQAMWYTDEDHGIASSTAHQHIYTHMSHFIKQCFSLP

N[C@@H](CC(=O)N1CCN(C(c2ccc(F)cc2)c2ccc(F)cc2)CC1)C(=O)N1Cc2ccccc2C1 [1G244, reference compound]
IC50 (DPP9): 0.014 ± 0.002 µM
DPP9 activity [%] (DPP9; c 1.6 nM): 98.3651% and 97.0319% and 99.1099%
DPP9 activity [%] (DPP9; c 3.1 nM): 86.8432% and 92.2931% and 89.5294%
DPP9 activity [%] (DPP9; c 6.3 nM): 74.2081% and 76.5022% and 75.3461%
DPP9 activity [%] (DPP9; c 25 nM): 35.0531% and 41.6358% and 39.7574%
DPP9 activity [%] (DPP9; c 50 nM): 22.1104% and 25.58% and 23.0144%
DPP9 activity [%] (DPP9; c 100 nM): 13.084% and 15.2109% and 15.2279%
95% confidence interval of difference ([1]; Figure 5c): -77,49 to -58,50
95% confidence interval of difference ([1]; Figure S10a replicate 1): -64,34 to -33,22
95% confidence interval of difference ([1]; Figure S10a replicate 2): -102,2 to -69,11
95% confidence interval of difference ([1]; Figure S10a replicate 3): -86,10 to -55,17
effect on MMC-induced DPP9-BRCA2 PLA events ([1]; HeLa wild-type, 300 nM MMC 24 h, 10 µM inhibitor): fewer MMC-induced PLA events
cell viability normalized for each condition seperately to corresponsing [-MMC +inhibitor] control (HeLa wild-type cells [2]): 65.3963% and 56.5004% and 50.0376% and 54.1195% and 51.2842% and 44.9012% and 47.541% and 41.8131% and 48.7041%
95% confidence interval of difference (HeLa wild-type cells [2]; [4]): 21,97 to 43,17
95% confidence interval of difference (HeLa wild-type cells [2]; [5]): 6,539 to 20,16
effect on cell viability / sensitivity to MMC (HeLa wild-type cells [2]): increases the sensitivity of; also recorded: significantly reduced cell viability
Cell viability normalized to mock treated cells + 0 µM MMC (HeLa wild-type cells [3]): 47.738% and 64.0147% and 69.6676% and 64.7998% and 59.8364% and 62.7117% and 63.5049% and 78.6659% and 67.3863%
95% confidence interval of difference (HeLa wild-type cells [3]): 26,96 to 48,16
effect on cell viability without MMC (HeLa wild-type cells [3]; HeLa wild-type, 10 µM, 72 h): reduced cell viability
IC50 (DPP8): 0.0044 ± 0.0015 µM
DPP8 activity [%] (DPP8; c 1.6 nM): 91.0893% and 98.7118% and 100.309%
DPP8 activity [%] (DPP8; c 3.1 nM): 71.9188% and 85.2033% and 73.5988%
DPP8 activity [%] (DPP8; c 6.3 nM): 45.4307% and 54.9695% and 54.3535%
DPP8 activity [%] (DPP8; c 25 nM): 12.8362% and 14.9584% and 14.076%
DPP8 activity [%] (DPP8; c 50 nM): 6.548% and 6.987% and 5.844%
DPP8 activity [%] (DPP8; c 100 nM): 2.369% and 3.267% and 3.933%

CC(C)[C@H](N)C(=O)N1CCC[C@H]1B(O)O [VbP, Val-boroPro, reference compound]
DPP4 activity [%] (DPP4; c 1.6 nM): 67.4885% and 113.658% and 85.6002%
DPP4 activity [%] (DPP4; c 3.1 nM): 70.6772% and 79.559% and 93.9074%
DPP4 activity [%] (DPP4; c 6.3 nM): 51.4161% and 71.0555% and 74.1702%
DPP4 activity [%] (DPP4; c 25 nM): 4.534% and 5.3397% and 4.7469%
DPP4 activity [%] (DPP4; c 50 nM): 3.474% and 3.265% and 3.283%
DPP4 activity [%] (DPP4; c 100 nM): 2.2772% and 2.383% and 2.483%

N[C@@H](CC(=O)N1CCn2c(nnc2C(F)(F)F)C1)Cc1cc(F)c(F)cc1F [Sitagliptin]
cell viability normalized for each condition seperately to corresponsing [-MMC +inhibitor] control (HeLa wild-type cells [2]): 57.6636% and 68.4041% and 71.5915% and 62.1849% and 65.8665% and 55.7127% and 55.3675% and 52.3411% and 61.9483%
95% confidence interval of difference (HeLa wild-type cells [2]; [4]): -7,015 to 14,19
95% confidence interval of difference (HeLa wild-type cells [2]; [5]): -3,548 to 10,07
effect on cell viability / sensitivity to MMC (HeLa wild-type cells [2]): no additional effect
Cell viability normalized to mock treated cells + 0 µM MMC (HeLa wild-type cells [3]): 87.835% (2×) and 113.478% (2×) and 105.575% (2×) and 118.346% (2×) and 103.264% (2×) and 91.1179% (2×) and 93.7454% (2×) and 87.0346% (2×) and 95.6216% (2×)
95% confidence interval of difference (HeLa wild-type cells [3]): -8,338 to 12,86

NC1CCCN(P(N)(=O)NS(=O)(=O)O)C1=O (stereo not shown) [WTC0260B]
IC50 (DPP9): 6.26 µM
IC50 (DPP8): 27.9 µM
